Earlier results in patent EP4691460A1, “RAMELTEON SUBLINGUAL FILM AND PREPARATION METHOD THEREFOR” (Hangzhou Chengbang Pharmaceutical Technology Co., Ltd, priority 2023, dated 2024).

Legend:
MT1 receptors = MT1 receptors (Homo sapiens, UniProt P48039); details: fraction of the affinity of ramelteon
MT2 receptors = target: T1, MT2 receptors (Homo sapiens, UniProt P49286); details: fraction of the affinity of ramelteon
T1 sequence (P49286 1-362): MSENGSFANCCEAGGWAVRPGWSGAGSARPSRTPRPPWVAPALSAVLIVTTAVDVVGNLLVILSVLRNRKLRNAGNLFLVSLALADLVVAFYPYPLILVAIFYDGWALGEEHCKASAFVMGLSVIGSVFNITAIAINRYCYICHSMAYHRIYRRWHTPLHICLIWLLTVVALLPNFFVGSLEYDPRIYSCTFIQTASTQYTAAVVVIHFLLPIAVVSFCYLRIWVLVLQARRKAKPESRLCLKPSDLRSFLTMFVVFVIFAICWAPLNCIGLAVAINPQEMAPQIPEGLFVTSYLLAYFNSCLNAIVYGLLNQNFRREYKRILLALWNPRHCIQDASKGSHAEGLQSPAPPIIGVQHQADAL

[1] = oral administration, clinical data
[2] = taken with a high-fat meal versus fasting

Sequence of MT1 receptors (P48039 whole entry): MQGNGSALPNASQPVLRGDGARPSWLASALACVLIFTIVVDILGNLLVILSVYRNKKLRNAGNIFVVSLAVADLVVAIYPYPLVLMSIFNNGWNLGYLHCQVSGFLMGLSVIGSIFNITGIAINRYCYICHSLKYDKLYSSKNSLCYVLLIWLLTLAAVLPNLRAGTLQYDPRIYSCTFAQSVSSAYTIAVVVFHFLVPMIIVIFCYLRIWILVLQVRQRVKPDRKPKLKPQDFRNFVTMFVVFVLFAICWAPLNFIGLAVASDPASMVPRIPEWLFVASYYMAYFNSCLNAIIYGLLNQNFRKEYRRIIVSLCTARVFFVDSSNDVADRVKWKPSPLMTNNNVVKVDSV

Structure (SMILES)	total amount relative to the metabolic substrate (main metabolite versus ramelteon)	affinity with MT1 receptors relative to the metabolic substrate (MT1 receptors)	affinity with MT2 receptors relative to the metabolic substrate (MT2 receptors)	drug absorbed after oral administration [1]	median time to peak drug concentration [1]	absolute bioavailability (oral administration, first pass effect)	AUC higher than that of fasting administration (taken with a high-fat meal)	Cmax reduction [2]	median Tmax delay [2]
CC(O)C(=O)NCC[C@@H]1CCc2ccc3c(c21)CCO3 (stereo partly drawn) [M-II]	20-100 times	about one fifth	one tenth						
CCC(=O)NCC[C@@H]1CCc2ccc3c(c21)CCO3 [ramelteon, Ramelteon]				At least 84%	approximately 0.75 (0.5-1.5) h	1.4%	31%	22%	45 min
